The record followed here is ChEMBL document CHEMBL1149537, “Design and synthesis of 1,2-dithiolane derivatives and evaluation of their neuroprotective activity” (Bioorg Med Chem Lett, 2007).

This test has as its system HT-22. The experiment in a line: Neuroprotective activity against glutamate-induced damage in mouse HT22 cells after 24 hrs. It is filed as functional, cell-based. Particulars: HT-22, 24 h.

In the case of `Oc1ccc(-c2cn(CCCCCC3CCSS3)nn2)cc1O` (stereo not given), the 50% effective concentration (EC50) came to 6.23 µM. In other words, the single-digit micromolar range.
`O=C(CCCCC1CCSS1)NCCc1ccc(O)c(O)c1` (stereo not given) came in with a concentration giving a half-maximal response (EC50) greater than 10 µM.
For the compound `Oc1ccc(-c2noc(CCCCC3CCSS3)n2)cc1O` (stereo not given), the concentration giving a half-maximal response (EC50) stood at 3.63 µM.
For the compound `COc1ccc(CCNC(=O)CCCCC2CCSS2)cc1OC` (stereo not given), the EC50 was greater than 10 µM.
With `COc1ccc(-c2nnc(CCCCC3CCSS3)o2)cc1OC` (stereo not given), the 50% effective concentration (EC50) was greater than 10 µM.
The figure for `COc1ccc(CCn2nnnc2CCCCC(S)CCS)cc1OC` (stereo not given) is greater than 10 µM; for `COc1ccc(CCn2nnnc2CCCCC2CCSS2)cc1OC` (stereo not given) it is greater than 10 µM.
The compound `COc1ccc(CCc2nnc(CCCCC3CCSS3)o2)cc1OC` (stereo not given) yielded a 50% effective concentration (EC50) greater than 10 µM.
In turn, `COc1ccc(-c2noc(CCCCC(S)CCS)n2)cc1OC` (stereo not given) showed an EC50 greater than 10 µM.
`COc1ccc(-c2cn(CCCCCC3CCSS3)nn2)cc1OC` (stereo not given) gave a 50% effective concentration (EC50) greater than 10 µM.
With `COc1ccc(-c2csc(CCCCC3CCSS3)n2)cc1OC` (stereo not given), the EC50 was greater than 10 µM.
`Oc1ccc(CCc2nnc(CCCCC3CCSS3)o2)cc1O` (stereo not given): the concentration giving a half-maximal response (EC50) was found to be 4.21 µM. This counts as single-digit micromolar.
`Oc1ccc(CCn2nnnc2CCCCC2CCSS2)cc1O` (stereo not given) came in with an EC50 of 2.99 µM.
In turn, `O=C(CCCCC(S)CCS)NCCc1ccc(O)c(O)c1` (stereo not given) displayed a half-maximal effective concentration (EC50) greater than 10 µM.
The compound `COc1ccc(-c2noc(CCCCC3CCSS3)n2)cc1OC` (stereo not given) returned a 50% effective concentration (EC50) greater than 10 µM.
